# Marks after values point to notes of the source that are not given here. Peptide text beside a SMILES is read from it.
# System: scalp of dandruff and non-dandruff subjects
# Assay: Metabolite expression profiling (LC/MS/MS, GC/MS/MS) of scalp D-Squame tape strip extracts: non-dandruff, dandruff baseline, dandruff after 3 weeks anti-dandruff shampoo
# Format: in vivo, human
# Details: for reduction / decrease of metabolite level vs dandruff baseline: after three weeks ZPT shampoo; for decrease of metabolite level vs dandruff baseline: after three weeks selenium sulfide shampoo; for Fold Change Wk 3 Sel vs Dandruff Baseline / Fold Change Wk 3 ZPT vs Dandruff Baseline / Fold Change Wk 3 ZPT vs Non-Dan Baseline / Fold Change Wk 3 Sel vs Non-Dan Baseline: metabolite level in scalp tape strips; for Fold Change Wk 3 Sel vs Dandruff Baseline / Fold Change Wk 3 ZPT vs Dandruff Baseline: standardized to soluble protein; for Fold Change Wk 3 Sel vs Dandruff Baseline: dandruff subjects after 3 weeks 1% selenium sulfide shampoo vs own baseline; for Fold Change Wk 3 ZPT vs Dandruff Baseline: dandruff subjects after 3 weeks 1% zinc pyrithione shampoo vs own baseline; for Fold Change Wk 3 ZPT vs Non-Dan Baseline: dandruff subjects after 3 weeks 1% ZPT shampoo vs non-dandruff subjects; for Fold Change Wk 3 Sel vs Non-Dan Baseline: dandruff subjects after 3 weeks 1% selenium sulfide shampoo vs non-dandruff subjects
# Excerpt: In an embodiment, the use of an adhesive device can be used to achieve such sampling. In preparation for such a sampling study for a dandruff sampling, at a baseline visit, a qualified screening grader will complete adherent scalp flaking score (ASFS) grading for each subject and the highest flaking octant will be identified for tape strip sampling. The highest flaking octant will be sampled at baseline and at various time points during and after treatment with product. Tape strips samples will be collected from each subject at each time point (e.g., baseline and week 3).
# The tape strip sampling procedure is repeated additional times, as needed, at the same site placing each D-Squame® tape disc on top of the prior sampled area. The D-Squame® tapes after sample collection are placed into the appropriately labeled wells in a labeled plate.
# Following the sampling, an extraction and quantitation procedure is conducted. In an embodiment of the present invention, quantitation of small molecules from extracts of D-Squame® Tape Samples can be conducted via analysis by either LC/MS/MS or GC/MS/MS. In this embodiment of the present invention, the sample extraction in preparation for Metabolite expression profiling technology was performed.
# The D-Squame® tape sample plates are removed from −80° C. freezer where they are stored following sample collection, and placed on dry ice. The tape strips are inserted into pre-labeled polypropylene collection tubes, adhesive side facing inward. Extraction buffer containing methanol and water is added to each collection tube and then extracted on ice using sonication for 15 min. If necessary, additional tapes are placed in the collection tube containing the extract solution and the extraction process is repeated as a means of concentrating the sample. Each extract solution is isolated from the tape strip and an aliquot of each sample is placed into a pre-labeled polypropylene collection tubes and frozen at −80° C. for metabolite expression profiling analysis. A separate aliquot is specified for soluble protein analysis using a BCA™ Protein Assay Kit. For this analysis, the aliquot consisting of methanol and water is taken to dryness under a gentle stream of nitrogen. The sample is resuspended in an appropriate aqueous buffer (e.g., PBS/SDS (1× PBS+0.2% SDS) and analyzed for soluble protein.
# The extracts are analyzed by GC/MS/MS and LC/MS/MS in positive and negative ion mode. Chromatographic separation followed by full scan mass spectra and MS/MS spectra is carried out to record and quantify all detectable ions present in the samples. Metabolites with known chemical structure can be identified by matching the ions' chromatographic retention index and mass spectra fragmentation signatures with reference library entries created from authentic standard metabolites under the identical analytical procedure as the experimental samples. Welch's Two Sample t-tests and matched-pair t-tests are used to analyze the data. […] The statistical analyses are performed on natural log-transformed data to reduce the effect of any potential outliers in the data. Welch's Two Sample t-test comparisons are made between the means of each biochemical from the various groups listed at the top of the tables and are calculated using either or both of the statistical analysis software programs: Array Studio (Omicsoft, Inc) or “R” from the Free Software Foundation, Inc.
# Subjects are evaluated by a qualified grader to establish their scalp status. Dandruff subjects are identified by their level of visible flaking as assessed by a qualified grader. Non-dandruff healthy scalp subjects are evaluated at baseline to establish normalized levels of each biomarker. In this study, there are 60 non-dandruff subjects that are evaluated at baseline. […] They are evaluated at baseline, and after 3 weeks of product usage.
# [1] = dandruff subjects after 3 weeks treatment with Sel shampoo, metabolite level in scalp tape strip extract
# [2] = dandruff subjects after 3 weeks treatment with ZPT shampoo, metabolite level in scalp tape strip extract
# [3] = relative metabolite level in scalp tape strips, dandruff subjects after 3 weeks 1% ZPT shampoo
# [4] = relative metabolite level in scalp tape strips, dandruff subjects after 3 weeks 1% selenium sulfide shampoo
Molecule,Mean Values WEEK 3 TRT Sel [1],Mean Values WEEK 3 TRT ZPT [2],reduction / decrease of metabolite level vs dandruff baseline,decrease of metabolite level vs dandruff baseline,Fold Change Wk 3 Sel vs Dandruff Baseline,Fold Change Wk 3 Sel vs Dandruff Baseline (listed as 13-HODE+9-HODE),Fold Change Wk 3 ZPT vs Dandruff Baseline,Fold Change Wk 3 ZPT vs Dandruff Baseline (listed as 13-HODE+9-HODE),Fold Change Wk 3 ZPT vs Non-Dan Baseline,Fold Change Wk 3 Sel vs Non-Dan Baseline,Mean Values WEEK 3 TRT ZPT [3],Mean Values WEEK 3 TRT Sel [4]
CCCCCCCCCCCCCCCCC(=O)OCC(O)CO (stereo not drawn),0.638,1.1274,–,–,–,–,–,–,–,–,–,–
13- and 9-hydroxyoctadecadienoic acid [13-HODE + 9-HODE],0.4182,0.4413,74%,66%,0.34* fold,0.34 fold,0.26*** fold,0.26 fold,0.5*** fold,0.48* fold,–,–
CCCCCCCCCCCCCCC(O)C(=O)O (stereo not drawn) [2-hydroxypalmitate],0.6696,0.8231,–,–,0.57* fold,–,1.04 fold,–,0.6* fold,0.49* fold,–,–
O=C(O)C(O)Cc1ccc(O)cc1 (stereo not drawn) [3-(4-hydroxyphenyl)lactate],0.7878,0.7551,–,–,0.44* fold,–,0.7*** fold,–,0.8 fold,0.84 fold,–,–
CC(C)CCC[C@@H](C)[C@H]1CC[C@H]2[C@@H]3[C@H](O)C=C4C[C@@H](O)CC[C@]4(C)[C@H]3CC[C@]12C [7-alpha-hydroxycholesterol],0.9662,0.959,–,–,–,–,–,–,–,–,–,–
"CCCCCCC=CCCCCCCCCC(=O)O [10-heptadecenoate (17:1n7), 10-heptadecenoate]",0.4139,0.7411,–,–,0.33* fold,–,0.67*** fold,–,0.52*** fold,0.29* fold,–,–
"CCCCCCCCC=CCCCCCCCCC(=O)O [10-nonadecenoate (19:1n9), 10-nonadecenoate]",0.1901,0.4088,–,–,0.14* fold,–,0.31* fold,–,0.38* fold,0.17* fold,–,–
CC(C)CCCCCCCCCCCCCC(=O)O [15-methylpalmitate],0.3813,0.485,–,–,0.31* fold,–,0.4* fold,–,0.35* fold,0.27* fold,–,–
CC(C)CCCCCCCCCCCCCCCC(=O)O [17-methylstearate],0.273,0.4446,–,–,0.21* fold,–,0.36* fold,–,0.35* fold,0.22* fold,–,–
OC[C@@H](O)C(O)[C@H](O)CO [Arabitol],–,–,–,–,0.73 fold,–,0.61* fold,–,0.65 fold,1.07 fold,–,–
O=C(O)c1ccccc1 [Benzoate],–,–,–,–,7.26**** fold,–,2.02**** fold,–,2.16**** fold,4.26**** fold,–,–
NCCO [Ethanolamine],1.7285,0.976,–,–,1.63**** fold,–,1.08 fold,–,2.53**** fold,4.49** fold,–,–
O=C(O)/C=C/C(=O)O [Fumarate],–,–,–,–,0.37*** fold,–,0.53 fold,–,0.68 fold,0.76 fold,–,–
"NCCCC(=O)O [Gamma-aminobutyrate (GABA), Gamma-aminobutyrate]",–,–,–,–,–,–,–,–,–,–,0.1343,0.1888
N[C@@H](CCC(=O)N[C@@H](CCC(=O)O)C(=O)O)C(=O)O [Gamma-glutamylglutamate],–,–,–,–,0.95 fold,–,1.89** fold,–,2.09** fold,1.11 fold,1.7984,0.9586
N[C@@H](CCC(=O)O)C(=O)O [Glutamate],–,–,–,–,–,–,–,–,–,–,0.7627,1.0169
NCC(=O)O [Glycine],–,–,–,–,–,–,–,–,–,–,0.7968,0.8645
CC(C)CCC[C@@H](C)[C@H]1CC[C@H]2C3=CC[C@H]4C[C@@H](O)CC[C@]4(C)[C@H]3CC[C@]12C [Lathosterol],0.9469,0.7479,–,–,–,–,–,–,–,–,–,–
CC(C)C[C@H](N)C(=O)N[C@@H](CCC(=O)O)C(=O)O [Leucylglutamate] (H-Leu-Glu-OH),0.9581,0.874,–,–,0.81* fold,–,1.13 fold,–,0.93 fold,1.02 fold,–,–
"CCCC/C=C\CCCCCCCC(=O)O [Myristoleate (14:1n5), Myristoleate]",0.6261,0.8341,–,–,0.53*** fold,–,0.8*** fold,–,0.6* fold,0.45* fold,–,–
Cn1cc(C(N)=O)ccc1=O [N1-Methyl-2-pyridone-5-carboxamide],0.8271,1.1768,–,–,0.89 fold,–,1.57 fold,–,0.76 fold,0.54* fold,–,–
"CCCCCC/C=C\CCCCCCCC(=O)O [Palmitoleate (16:1n7), Palmitoleate]",0.6347,0.8507,–,–,0.55* fold,–,0.83* fold,–,0.58* fold,0.43* fold,–,–
CCCCCCCCCCCCCCCCCC(=O)NCCO [Stearoyl ethanolamide],2.6645,2.3466,–,–,5.03** fold,–,2.94 fold,–,3.88** fold,4.41** fold,–,–
NC(N)=O [Urea],2.5539,2.6469,–,–,2.81**** fold,–,4.13 fold,–,3.75 fold,3.62** fold,–,–
O=c1[nH]c(=O)c2[nH]cnc2[nH]1 [Xanthine],–,–,84%,85%,–,–,–,–,–,–,–,–

# From patent publication US20140271930A1, “NONINVASIVE METHOD FOR MEASURING METABOLITES FOR SKIN HEALTH” (priority 2013, published 2014)
